Measurements taken from publication PMC3685178 (Chemical communications (Cambridge, England), 2013).

Test system: MCF-7 tumour cells
Assay type: cell-based, human
Details: MCF-7, 50 nM, 48 h exposure; cells larger in size, characteristic of G2-M arrest

CC(=O)O[C@H]1C(=O)[C@@]2(C)[C@H]([C@H](OC(=O)c3ccccc3)[C@]3(O)C[C@H](OC(=O)[C@H](O)[C@@H](NC(=O)c4ccccc4)c4ccccc4)C(C)=C1C3(C)C)[C@]1(OC(C)=O)CO[C@@H]1C[C@@H]2O [PTX, paclitaxel]
cell populations in live/dead assay: significantly reduced
